Test results reported in the NIST ThermoML archive (doi:10.1016/j.jct.2004.07.024).

Test: xn = mol fraction of the nth substance listed
Details: 101.33 kPa, Liquid

C[S+](C)[O-] [dimethyl sulfoxide] + c1ccccc1
Details | mass density [kg/m3]
293.15 K, x2 = 0.0589 | 1084.47
293.15 K, x2 = 0.1255 | 1067.5
293.15 K, x2 = 0.1852 | 1052.58
293.15 K, x2 = 0.2561 | 1035.37
293.15 K, x2 = 0.2934 | 1026.52
293.15 K, x2 = 0.3345 | 1016.91
293.15 K, x2 = 0.3782 | 1006.87
293.15 K, x2 = 0.4312 | 994.89
293.15 K, x2 = 0.4757 | 985.02
293.15 K, x2 = 0.5963 | 958.97
293.15 K, x2 = 0.6875 | 939.81
293.15 K, x2 = 0.7369 | 929.61
293.15 K, x2 = 0.8637 | 903.71
293.15 K, x2 = 0.9562 | 885.02
303.15 K, x2 = 0.0596 | 1075.16
303.15 K, x2 = 0.1345 | 1056.18
303.15 K, x2 = 0.194 | 1041.49
303.15 K, x2 = 0.2473 | 1028.63
303.15 K, x2 = 0.2893 | 1018.74
303.15 K, x2 = 0.3465 | 1005.44
303.15 K, x2 = 0.4213 | 988.61
303.15 K, x2 = 0.4835 | 974.94
303.15 K, x2 = 0.5431 | 962.12
303.15 K, x2 = 0.5968 | 950.76
303.15 K, x2 = 0.6763 | 934.26
303.15 K, x2 = 0.7781 | 913.49
303.15 K, x2 = 0.8511 | 898.8
303.15 K, x2 = 0.9542 | 878.27
313.15 K, x2 = 0.059 | 1064.91
313.15 K, x2 = 0.1267 | 1047.76
313.15 K, x2 = 0.1873 | 1032.78
313.15 K, x2 = 0.2676 | 1013.53
313.15 K, x2 = 0.2933 | 1007.51
313.15 K, x2 = 0.3378 | 997.22
313.15 K, x2 = 0.4321 | 976.04
313.15 K, x2 = 0.4752 | 966.67
313.15 K, x2 = 0.5514 | 950.39
313.15 K, x2 = 0.6011 | 939.97
313.15 K, x2 = 0.6837 | 923
313.15 K, x2 = 0.7653 | 906.53
313.15 K, x2 = 0.8681 | 886.1
313.15 K, x2 = 0.9499 | 870
323.15 K, x2 = 0.0602 | 1054.55
323.15 K, x2 = 0.1257 | 1038.36
323.15 K, x2 = 0.1833 | 1024.43
323.15 K, x2 = 0.2512 | 1008.48
323.15 K, x2 = 0.3294 | 990.67
323.15 K, x2 = 0.3931 | 976.6
323.15 K, x2 = 0.4615 | 961.88
323.15 K, x2 = 0.5232 | 948.95
323.15 K, x2 = 0.5972 | 933.77
323.15 K, x2 = 0.6502 | 923.09
323.15 K, x2 = 0.7149 | 910.25
323.15 K, x2 = 0.7896 | 895.64
323.15 K, x2 = 0.8788 | 878.39
323.15 K, x2 = 0.9556 | 863.66
333.15 K, x2 = 0.0593 | 1044.75
333.15 K, x2 = 0.1279 | 1028.18
333.15 K, x2 = 0.1801 | 1015.83
333.15 K, x2 = 0.2566 | 998.31
333.15 K, x2 = 0.3263 | 982.84
333.15 K, x2 = 0.3862 | 969.9
333.15 K, x2 = 0.4523 | 955.99
333.15 K, x2 = 0.5213 | 941.87
333.15 K, x2 = 0.5869 | 928.72
333.15 K, x2 = 0.6532 | 915.7
333.15 K, x2 = 0.7256 | 901.71
333.15 K, x2 = 0.7959 | 888.33
333.15 K, x2 = 0.8864 | 871.29
333.15 K, x2 = 0.9116 | 866.58
343.15 K, x2 = 0.0593 | 1034.67
343.15 K, x2 = 0.1356 | 1016.68
343.15 K, x2 = 0.2182 | 997.86
343.15 K, x2 = 0.2636 | 987.78
343.15 K, x2 = 0.3296 | 973.51
343.15 K, x2 = 0.3938 | 960.01
343.15 K, x2 = 0.4686 | 944.74
343.15 K, x2 = 0.5213 | 934.26
343.15 K, x2 = 0.5769 | 923.38
343.15 K, x2 = 0.6623 | 907.03
343.15 K, x2 = 0.7385 | 892.7
343.15 K, x2 = 0.7801 | 884.99
343.15 K, x2 = 0.8569 | 870.86
343.15 K, x2 = 0.9503 | 853.81
353.15 K, x2 = 0.058 | 1024.84
353.15 K, x2 = 0.1585 | 1001.73
353.15 K, x2 = 0.2335 | 985.09
353.15 K, x2 = 0.3065 | 969.42
353.15 K, x2 = 0.3765 | 954.93
353.15 K, x2 = 0.4187 | 946.35
353.15 K, x2 = 0.4682 | 936.49
353.15 K, x2 = 0.5242 | 925.57
353.15 K, x2 = 0.5912 | 912.8
353.15 K, x2 = 0.6404 | 903.56
353.15 K, x2 = 0.7556 | 882.4
353.15 K, x2 = 0.8024 | 873.93
353.15 K, x2 = 0.8701 | 861.79
353.15 K, x2 = 0.9284 | 851.4

CCc1ccccc1 [ethylbenzene] + C[S+](C)[O-]
Details | mass density [kg/m3]
293.15 K, x1 = 0.0626 | 1076.31
293.15 K, x1 = 0.1596 | 1043.57
293.15 K, x1 = 0.2203 | 1025.03
293.15 K, x1 = 0.2983 | 1003.06
293.15 K, x1 = 0.3698 | 984.55
293.15 K, x1 = 0.4623 | 962.58
293.15 K, x1 = 0.5186 | 950.18
293.15 K, x1 = 0.5712 | 939.18
293.15 K, x1 = 0.6285 | 927.89
293.15 K, x1 = 0.6802 | 918.18
293.15 K, x1 = 0.7525 | 905.36
293.15 K, x1 = 0.8102 | 895.69
293.15 K, x1 = 0.8723 | 885.81
293.15 K, x1 = 0.9456 | 874.79
303.15 K, x1 = 0.0669 | 1065.53
303.15 K, x1 = 0.1456 | 1038.79
303.15 K, x1 = 0.2569 | 1005.2
303.15 K, x1 = 0.3203 | 988
303.15 K, x1 = 0.3956 | 969
303.15 K, x1 = 0.4569 | 954.63
303.15 K, x1 = 0.5132 | 942.23
303.15 K, x1 = 0.5856 | 927.28
303.15 K, x1 = 0.6277 | 919.04
303.15 K, x1 = 0.7065 | 904.51
303.15 K, x1 = 0.7856 | 890.93
303.15 K, x1 = 0.8359 | 882.8
303.15 K, x1 = 0.8856 | 875.1
303.15 K, x1 = 0.9503 | 865.51
313.15 K, x1 = 0.0624 | 1056.77
313.15 K, x1 = 0.1459 | 1028.39
313.15 K, x1 = 0.2201 | 1005.62
313.15 K, x1 = 0.2692 | 991.65
313.15 K, x1 = 0.3314 | 975.03
313.15 K, x1 = 0.3963 | 958.87
313.15 K, x1 = 0.4456 | 947.35
313.15 K, x1 = 0.4965 | 936.07
313.15 K, x1 = 0.5216 | 930.71
313.15 K, x1 = 0.5986 | 915.08
313.15 K, x1 = 0.6853 | 898.86
313.15 K, x1 = 0.7526 | 887.13
313.15 K, x1 = 0.8418 | 872.68
313.15 K, x1 = 0.9258 | 860.05
323.15 K, x1 = 0.0625 | 1046.39
323.15 K, x1 = 0.1786 | 1007.95
323.15 K, x1 = 0.2469 | 987.84
323.15 K, x1 = 0.3095 | 970.78
323.15 K, x1 = 0.3698 | 955.5
323.15 K, x1 = 0.4152 | 944.61
323.15 K, x1 = 0.4723 | 931.67
323.15 K, x1 = 0.5362 | 918.08
323.15 K, x1 = 0.6048 | 904.45
323.15 K, x1 = 0.6604 | 894.04
323.15 K, x1 = 0.7301 | 881.76
323.15 K, x1 = 0.7992 | 870.36
323.15 K, x1 = 0.8683 | 859.65
323.15 K, x1 = 0.9226 | 851.65
333.15 K, x1 = 0.066 | 1034.83
333.15 K, x1 = 0.1159 | 1017.74
333.15 K, x1 = 0.1896 | 994.42
333.15 K, x1 = 0.2156 | 986.74
333.15 K, x1 = 0.2765 | 969.61
333.15 K, x1 = 0.3286 | 955.9
333.15 K, x1 = 0.3964 | 939.26
333.15 K, x1 = 0.4598 | 924.75
333.15 K, x1 = 0.5349 | 908.81
333.15 K, x1 = 0.6126 | 893.53
333.15 K, x1 = 0.6861 | 880.14
333.15 K, x1 = 0.7698 | 865.99
333.15 K, x1 = 0.8459 | 854.04
333.15 K, x1 = 0.9025 | 845.66
343.15 K, x1 = 0.0599 | 1026.68
343.15 K, x1 = 0.1569 | 994.32
343.15 K, x1 = 0.2363 | 970.71
343.15 K, x1 = 0.3001 | 953.33
343.15 K, x1 = 0.3895 | 931.07
343.15 K, x1 = 0.4519 | 916.81
343.15 K, x1 = 0.5163 | 903.06
343.15 K, x1 = 0.5698 | 892.31
343.15 K, x1 = 0.6389 | 879.27
343.15 K, x1 = 0.6895 | 870.27
343.15 K, x1 = 0.7558 | 859.13
343.15 K, x1 = 0.8106 | 850.44
343.15 K, x1 = 0.8895 | 838.64
343.15 K, x1 = 0.9502 | 830.09
353.15 K, x1 = 0.059 | 1016.69
353.15 K, x1 = 0.1555 | 984.6
353.15 K, x1 = 0.2236 | 964.29
353.15 K, x1 = 0.2856 | 947.23
353.15 K, x1 = 0.3384 | 933.66
353.15 K, x1 = 0.4089 | 916.78
353.15 K, x1 = 0.4625 | 904.82
353.15 K, x1 = 0.5185 | 893.03
353.15 K, x1 = 0.5665 | 883.47
353.15 K, x1 = 0.6255 | 872.34
353.15 K, x1 = 0.6706 | 864.28
353.15 K, x1 = 0.7556 | 850
353.15 K, x1 = 0.8326 | 838.04
353.15 K, x1 = 0.9129 | 826.41
